The structures appear in SMILES notation. Read-outs that look alike come from different tables or passages of the source.

This is an account of results in patent publication US5216001A, “Indole derivatives” (H. Lunbeck A/S, priority 1990, dated 1993).

For experiment [1], the target named is T1, serotonin S2 (5-HT2) receptors (Rattus norvegicus, UniProt P14842).
T1 construct: cortical tissue is dissected and weighed; from tissue; host or cells: cerebral cortex membranes of male Wistar (Mol:Wist) rats
T1 sequence (P14842 whole entry): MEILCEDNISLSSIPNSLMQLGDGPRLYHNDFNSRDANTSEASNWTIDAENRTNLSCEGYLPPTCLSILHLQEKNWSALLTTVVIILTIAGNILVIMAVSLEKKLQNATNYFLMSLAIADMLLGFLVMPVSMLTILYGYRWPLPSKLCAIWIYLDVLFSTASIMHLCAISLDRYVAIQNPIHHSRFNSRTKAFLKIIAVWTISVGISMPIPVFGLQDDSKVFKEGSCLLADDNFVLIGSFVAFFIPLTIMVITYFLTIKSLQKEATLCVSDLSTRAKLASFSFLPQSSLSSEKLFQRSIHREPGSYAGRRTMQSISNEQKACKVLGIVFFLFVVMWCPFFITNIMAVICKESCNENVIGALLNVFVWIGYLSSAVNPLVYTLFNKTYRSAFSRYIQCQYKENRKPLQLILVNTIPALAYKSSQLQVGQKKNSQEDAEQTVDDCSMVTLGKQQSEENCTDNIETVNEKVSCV
As to the kind of experiment: inhibition of 3H-ketanserin binding to serotonin S2 (5-HT2) receptors in rat cortex in vitro. As to conditions: 3H-ketanserin 0.5 nM, rat cortex membranes, read-out: Binding IC50, 3H Ket.

Experiment [2] deals with T2, 5-HT2 (Rattus norvegicus, UniProt P14842).
T2 construct: Four rats, male Wistar (Mol:Wist) SPF rats weighing 170-240 g; from tissue; host or cells: living male Wistar (Mol:Wist) SPF rats (in vivo, endogenous receptor)
T2 sequence (P14842 whole entry): as above
As to the kind of experiment: quipazine inhibition (quipazine-induced head twitches in rats). The format is in vivo. As for the experimental part:
Quipazine is a 5-HT2 agonist, which induces head twitches in rats. The test is a test for 5-HT2 -antagonistic effect testing the ability to inhibit head twitches. The method and test results for some reference substances are published by Arnt et al. (Drug Development Research, 16, 59-70, 1989).
Test substance is injected s.c. 2 hrs before or p.o. 24 hrs before quipazine administration (6.8 mg/kg, s.c., dimaleate). Four rats, male Wistar (Mol:Wist) SPF rats weighing 170-240 g, are used at each dose level. A control group is included each test day. By repeated testing (2, 24 hrs) the control group is the same, however. After quipazine administration the rats are individually placed in the observation cages and head twitches are counted in an observation period of 30-40 min. after injection of quipazine.
Total number of head twitches in each group is calculated and the result for each dose is expressed as per cent of the response in the control group. ED50 values are calculated by log-probit analysis. The test must be repeated if the average number of head twitches is lower than 9 in the control group.

The target of experiment [3] is T3, DA D-2 (Rattus norvegicus, UniProt P61169).
T3 construct: Male Wistar rats (Mol:Wist) weighing about 200 g at the time of operation are used; from tissue; host or cells: living male Wistar (Mol:Wist) rats with unilateral 6-OHDA lesions (in vivo, endogenous receptor)
T3 sequence (P61169 whole entry): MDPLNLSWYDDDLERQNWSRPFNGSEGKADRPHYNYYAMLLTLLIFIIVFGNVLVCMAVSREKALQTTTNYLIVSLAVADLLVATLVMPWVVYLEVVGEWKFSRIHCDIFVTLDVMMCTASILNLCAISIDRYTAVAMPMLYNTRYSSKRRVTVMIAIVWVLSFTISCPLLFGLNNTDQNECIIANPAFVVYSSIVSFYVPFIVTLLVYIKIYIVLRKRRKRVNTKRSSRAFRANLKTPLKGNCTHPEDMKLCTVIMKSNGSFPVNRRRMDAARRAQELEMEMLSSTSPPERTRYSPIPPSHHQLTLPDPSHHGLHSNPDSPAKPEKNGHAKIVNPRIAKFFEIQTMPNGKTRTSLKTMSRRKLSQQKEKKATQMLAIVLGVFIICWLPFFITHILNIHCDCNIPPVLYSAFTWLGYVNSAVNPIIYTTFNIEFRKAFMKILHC
As to the kind of experiment: antagonism of pergolide-induced circling behaviour in rats with unilateral 6-OHDA lesions. The format is in vivo. The note with it: sc, read-out: Pergolide rot. inhibition ED50, 2h (sc), 6-OHDA lesions, s.c., 2 h before pergolide. The protocol:
ANTAGONISM OF PERGOLIDE-INDUCED CIRCLING BEHAVIOUR IN RATS WITH UNILATERAL 6-OHDA LESIONS
Dopamine (DA) D-2 agonists induce contralateral circling behaviour in rats with 6-OHDA lesions. Pergolide-induced circling is antagonized by DA D-2 antagonists.
Male Wistar rats (Mol:Wist) weighing about 200 g at the time of operation are used. Unilateral lesions are made in pentobarbital anaesthetized rats by injection of 6-OHDA. HCl 9.7 μg/μl (equivalent to 8 μg free base) per 4 min. into the rostral tip of the substantia nigra. The saline solution contains ascorbic acid 0.2 mg/ml, is bubbled with N2 and is kept ice-cold. The experiments are done when stable contralateral circling responses to pergolide (0.05 μmol/kg, s.c.) are obtained. The circling response is measured in rotometer bowls. Only rats showing more than 400 complete turns in 2 hrs control session are used. Dose-response curves are obtained by alternating test and control sessions on a weekly basis. The antagonists are injected s.c. 2 hrs before the agonist. The effect of individual doses of test drugs is calculated as per cent of the mean effect of control sessions one week before and one week after the test session for each rat. ED50 values are calculated by log-probit analysis. Four to eight rats are used at each dosage.

The target of experiment [4] is T4, dopamine D-2 receptors (Rattus norvegicus, UniProt P61169).
T4 construct: striatal tissue is dissected and weighed; from tissue; host or cells: corpus striatum membranes of male Wistar rats
T4 sequence (P61169 whole entry): as above
As to the kind of experiment: inhibition of 3H-spiperone binding to dopamine D-2 receptors in rat corpus striatum in vitro. As to conditions: 3H-spiperone 0.5 nM, rat corpus striatum membranes, in vitro; read-out: Binding IC50, 3H Spi. The protocol: INHIBITION OF ^3 H-SPIPERONE BINDING TO DOPAMINE D-2 RECEPTORS IN RAT CORPUS STRIATUM IN VITRO
By this method the inhibition by drugs of the binding of ^3 H-spiperone (0.5 nM) to dopamine D-2 receptors in membranes from rat corpus striatum is determined in vitro. Method and results in Hyttel and Larsen, J. Neurochem, 44, 1615-1622, 1985).
Male Wistar (Mol:Wistar) rats (125-250 g) are sacrificed and striatal tissue is dissected and weighed. The tissue is homogenized (Ultra Turrax, 10 sec.) in 10 ml of ice-cold 50 mM K-phosphate buffer pH 7.4 (at 25° C.). The homogenate is centrifuged twice at 20,000 g for 10 min. at 4° C. with rehomogenization of the pellet in 10 ml ice-cold buffer. The final pellet is homogenized in 1300 vol (w/v) ice-cold buffer.
Incubation tubes kept on ice in triplicate receive 100 μl of drug solution in water (or water for total binding) and 4000 μl of tissue suspension (final tissue content corresponds to 3.08 mg original tissue). The binding experimental is initiated by addition of 100 μl of ^3 H-spiperone (final concentration 0.5 nM) and by placing the tubes in a 37° C. water bath. After incubation for 10 min. the samples are filtered under vacuum (0-50 mBar) through Whatman GF/F filters (25 mm). The tubes are rinsed with 5 ml ice-cold buffer which are then poured on the filters. Thereafter, the filters are washed with 2×5 ml of buffer. The filters are placed in counting vials and 4 ml of appropriate scintillation fluid (e.g. Picofluor ™15) are added. After shaking for 1 h and storage 2 hrs in the dark the content of radioactivity is determined by liquid scintillation counting. Specific binding is obtained by subtracting the nonspecific binding in the presence of 10 μM of 6,7-ADTN.
(§1) For determination of the inhibition of binding five concentrations of drugs covering 3 decades are used.
England, specific activity 15-25 Ci/mmol.

In experiment [5] the target is α1 adrenoceptors. As to the kind of experiment: inhibition of 3H-prazosin binding to α1 adrenoceptors in rat brain in vitro. The note with it: 3H-prazosin 0.25 nM, rat brain membranes, read-out: Binding IC50, 3H Praz. The protocol: INHIBITION OF ^3 H-PRAZOSIN BINDING TO α1 ADRENOCEPTORS IN RAT BRAIN IN VITRO
Method and results in Hyttel and Larsen, J. Neurochem, 44, 1615-1622, 1985; Skarsfeldt and Hyttel, Eur. J. Pharmacol. 125, 323-340, 1986.
Male Wistar (Mol:Wist) rats (125-200 g) are sacrificed and brain tissue is dissected and weighed. The tissue is homogenized (Ultra Turrax, 10 sec.) in 10 ml of ice-cold […] Tris buffer pH 7.7 (at 25° C.). The homogenate is centrifuged twice at 20,000 g for 10 min. at 4° C. with rehomogenization of the pellet in 10 ml ice-cold buffer. The final pellet is homogenized in 400 vol (w/v) ice-cold buffer.
Incubation tubes kept on ice in triplicate receive 100 μl of drug solution in water (or water for total binding) and 4000 μl of tissue suspension (final tissue content corresponds to 10 mg original tissue). The binding experiment is initiated by addition of 100 μl of ^3 H-Prazosin (final concentration 0.25 nM) and by placing the tubes in a 25° C. water bath. After incubation for 20 min. the samples are filtered under vacuum (0-50 mBar) through Whatman GF/F filters (25 mm). The tubes are rinsed with 5 ml ice-cold buffer which then are poured on the filters. Thereafter, the filters are washed with 5 ml of buffer. The filters are placed in counting vials and 4 ml of appropriate scintillation fluid (e.g. Picofluor™15) are added. After shaking for 1 h and storage 2 hrs in the dark the content of radioactivity is determined by liquid scintillation counting. Specific binding is obtained by subtracting the nonspecific binding in the presence of 1 μM of Prazosin.
as §1
The measured cpm are plotted against drug concentration on semilogarithmic paper and the best fitting S-shaped curve is drawn. The IC50 value is determined as the concentration at which the binding is 50% of the total binding in control samples minus the nonspecific binding in the presence of 1 μM of Prazosin. ^3 H-Prazosin=[furoyl-5-^3 H]-Prazosin from New England Nuclear, specific activity approximately 20 Ci/mmol.

The target of experiment [6] is T2, 5-HT2. Kind of experiment: quipazine inhibition (quipazine-induced head twitches in rats). The format is in vivo. The note with it: sc, s.c. (marked in cell), 24 h before quipazine, read-out: Quipazine inhibition ED50, 24h (sc).
For experiment [7] the following is noted: Klieser and Strauss 1988; cited from earlier work.
For experiment [8] the following is noted: animal test, Colpart et al. 1985; cited from earlier work.
For experiment [9] the following is noted: Janssen 1988; cited from earlier work.
For experiment [10] the following is noted: Bersani et al. 1990; cited from earlier work.
Setting [11] is: sc, 2 h, read-out: Quipazine inhibition ED50, 2h (sc).
Setting [12] is: sc, read-out: Quipazine inhibition ED50, 2h (sc), s.c., 2 h before quipazine.

The term IC50 denotes the point on the concentration scale where inhibition reaches its midpoint. What is called ED50 is the dose that gives a 50% effect, or the effect in half of the subjects. As for `O=C1NCCN1CCN1CCC(c2cn(-c3ccc(F)cc3)c3cc(Cl)ccc23)CC1` [Compound 4b, 6-chloro-1-(4-fluorophenyl)-3-[1-[2-(2-imidazolidinon-1yl)ethyl]-4-piperidyl]-1H-indole], the IC50 in experiment [1] is 0.0014 µM. In addition, the ED50 in experiment [2] (setting [11]) was 0.06 µmol/kg; in experiment [3] it was over 23 µmol/kg.

Regarding `O=C1NCCN1CCN1CCC(c2cn(-c3ccc(F)cc3)c3cc(Cl)c(Cl)cc23)CC1` [Compound 5f, 5,6-dichloro-1-(4-fluorophenyl)-3-[1-[2-(2-imidazolidinon-1-yl)ethyl]-4-piperidyl]-1H-indole], the IC50 in [1] came out at 0.0035 µM. Also, the ED50 in experiment [2] (po, 24 h, read-out: Quipazine inhibition ED50, 24h (po)) was 0.04 µmol/kg; in experiment [2] (setting [11]), 0.12 µmol/kg; in [3], over 42 µmol/kg.

As to `Cc1ccc2c(N3CCN(CCN4CCN(C(C)C)C4=O)CC3)cn(-c3ccc(F)cc3)c2c1` [Compound 6b, 1-(4-fluorophenyl)-6-methyl-3-[4-[2-[3-(2-propyl)-2-imidazolidinon-1-yl]ethyl]-1-piperazinyl]-1H-indole], the IC50 in experiment [1] came to 0.0027 µM; in experiment [4], 0.18 µM; in experiment [5], 0.076 µM. Moreover, in experiment [2] (setting [11]), the ED50 amounted to 0.04 µmol/kg.

In the case of `Cc1ccc2c(C3CCN(CCN4CCN(C(C)C)C4=O)CC3)cn(-c3ccccc3)c2c1` [Compound 15a], the IC50 in experiment [1] worked out at 0.002 µM; in experiment [4], 0.5 µM; in experiment [5] it was 0.12 µM. In addition, the ED50 in experiment [2] (setting [11]) turned out to be 0.01 µmol/kg.

Regarding `CC(C)N1CCN(CCN2CCC(c3cn(-c4ccccc4F)c4cc(Cl)ccc34)CC2)C1=O` [Compound 15j, 6-chloro-1-(2-fluorophenyl)-3-[1-[2-[3-(2-propyl)-2-imidazolidinon-1-yl]ethyl]-4-piperidyl]-1H-indole], the IC50 in [1] is 0.0037 µM; in experiment [4], 0.3 µM; in experiment [5] it was 0.12 µM. Also, the ED50 in experiment [2] (setting [11]) is 0.08 µmol/kg.

Regarding `Cc1ccc2c(c1)N(c1ccc(F)cc1)CC2C1CCN(CCN2CCN(C(C)C)C2=O)CC1` (centres unmarked) [Compound 20a, 1-(4-fluorophenyl)-6-methyl-3-[1-[2-[3-(2-propyl)-2-imidazolidinon-1-yl]ethyl]-4-piperidyl]-2,3-dihydro-1H-indole], the values for the IC50 in experiment [1] and in [4] were 0.0053 µM and 0.18 µM, respectively. The ED50 in [2] (setting [11]) worked out at 0.49 µmol/kg.

`CN(C)CCSc1nc2ccccc2cc1-c1ccccc1` [ICI 169369, reference compound]: the results for the IC50 in experiment [1], in [4] and in experiment [5] were 0.015 µM, 0.49 µM and 0.3 µM, respectively. The ED50 in experiment [2] (setting [11]) is over 3.6 µmol/kg.

As to `Cc1nc2sccn2c(=O)c1CCN1CCC(=C(c2ccc(F)cc2)c2ccc(F)cc2)CC1` [ritanserin], the IC50 in [5] worked out at 0.047 µM. The ED50 in experiment [2] (setting [12]) is 0.08 µmol/kg; in experiment [3], over 21 µmol/kg; in experiment [6], 0.98 µmol/kg. For the same compound, in [7], the “antidepressant effect and depressive symptoms of schizophrenia” value was “has been shown to be an antidepressant and to improve depressive symptoms of schizophrenia”. Besides, the “effects reminiscent of anxiolytic drug activity” value in experiment [8] is “exert effects in an animal test reminiscent of anxiolytic drug activity”. For the same compound, the quality of sleep entry in experiment [9] is “improve the quality of sleep”. Also, in experiment [10], the neuroleptic-induced parkinsonism result is given as “relieve neuroleptic-induced parkinsonism”.

Take `O=C1NCCN1CCN1CCC(c2cn(-c3ccc(F)cc3)c3ccc(Cl)cc23)CC1` [sertindole (Lu 23-174), 5-chloro-1-(4-fluorophenyl)-3-[1-[2-(2-imidazolidinon-1-yl)ethyl]-4-piperidyl]-1H-indole, reference compound]: the IC50 in experiment [5] was determined as 0.0034 µM. In addition, in experiment [2] (p.o., 24 h before quipazine), the “Quipazine inhibition ED50, 24h (po)” value stood at 0.04 µmol/kg. For the same compound, the 50% effective dose (ED50) in experiment [2] (setting [12]) turned out to be 0.04 µmol/kg; in experiment [3], 7.2 µmol/kg.
